US20080249144A1, “Preventive or Therapeutic Agent for Chronic Inflammatory Lung Disease” (KAKEN PHARMACEUITICAL CO., LTD., priority 2004, published 2008)

Assays:
[1] = tested on: murine model of BLM-induced pulmonary fibrosis; assay: BLM-induced pulmonary fibrosis model in mice; assay type: in vivo
Protocol: Bleomycin chloride (BLM) was dissolved in a physiological saline solution (saline). BLM was intravenously administered to 10-week-old ICR-strain male mice once in a dose of […] to induce disease. To a non-BLM administration group, saline was administered, instead. KP-496 was administered by inhalation twice a day from the initiation date of BLM administration to the day before autopsy. To describe in brief, a mouse housed in a polyethylene container under unrestrained conditions was allowed to spontaneously inhale a mist state of KP-496 solution (0.5 w/v %) nebulized by a nebulizer for 30 minutes. Furthermore, the vehicle (saline) for KP-496 was administered by inhalation to a control group, in the same manner. A group consisted of 8 animals.
On the 7th day or 21st day after administration of BLM, the mouse was killed by exsanguinations under anaesthesia with pentobarbital. Immediately after that, BAL of the right lung alone was done. BAL fluid (BALF) was centrifuged and the supernatant was removed, and thereafter, precipitated cells were resuspended in saline. The total number of cells was determined by use of a particle counter analyzer. Furthermore, using the remaining cell suspension solution, a smear sample of cells was prepared and stained with Giemsa. The cells were classified according to the cell type. Based on the percentages of cell types, the numbers of classified cells were calculated.
After BAL, the right lung was lyophilized. The content of hydroxyproline in the lung tissue was measured in accordance with the KISO method using chloramine T (Inayama et al., Keio J. Med., 27: 43 (1978)).
After BAL, the left lung was fixed in 10 vol % neutral-buffered formalin solution. Thereafter, a paraffin section was prepared in a general way, stained with H. E. and azan and subjected to histopathologic examination of the lung. When an abnormality was observed, the degree of the abnormality was arbitrarily evaluated under blind conditions and scored based on the following 4 stages:
0: No abnormality is observed
1: Pathologic lesion is locally observed in a limited area of a sample
2: Pathologic lesion is observed about a ⅓ region of a sample
3: Pathologic lesion is observed about a ½ region of a sample
4: Pathologic lesion is observed in substantially the entire region of a sample.
The average value and standard deviation of each group were obtained. Comparison between two groups, that is, between BLM administration/vehicle group and BLM administration/KP-496 group or a saline administration/vehicle group, was performed with the Student's t-test. Furthermore, histopathologic lesion scores were evaluated by the Mann-Whitney test. The significance level (P) was set at […].

[2] = tested on: vanadium pentoxide-induced bronchitis model; assay: Vanadium pentoxide-induced bronchitis model in mice; assay type: in vivo; conditions: 7 days after vanadium pentoxide; compared with control
Protocol: Seven-week old C57BL strain male mice were used. The mouse was anaesthetized with isoflurane. Vanadium pentoxide (20 μg) was administered once to the lung through a cannula inserted into the trachea through the pharyngolarynx to induce pathology. To a non-vanadium pentoxide administration group (normal group), saline was administered, instead. KP-496 was administered by inhalation twice a day in the period from the vanadium pentoxide administration date to the day before autopsy, in the same manner as in Example 2. Furthermore, the normal group and the control group were allowed to spontaneously inhale saline in the same manner. A medicament for use in comparison, prednisolone, was orally administered at a dose of 5 mg/kg twice a day in the period from the vanadium pentoxide administration date to the day before autopsy. Note that the normal group consisted of 6 animals and the other group consisted of 10 animals. Each of the mice was anaesthetized with pentobarbital 7 days after vanadium pentoxide administration and killed by bloodletting from the abdominal aorta. The lung was excised out and fixed in 10 vol % neutral buffered formalin solution. […] The obtained value was divided by the circumferential length of the bronchial lumen (obtained in mucosal basal membrane) and the quotient was expressed as a mucus producing region area per millimeter of the bronchus. […]

[3] = 7th day after BLM, inhalation twice a day
[4] = 21st day after BLM, inhalation twice a day

CC(C)c1csc(COc2cccc(CN(CCCCNS(=O)(=O)c3ccc(Cl)cc3)S(=O)(=O)c3ccccc3C(=O)O)c2)n1 [KP-496, 2-{N-[4-(4-chlorobenzenesulfonylamino)butyl]-N-{3-[(4-isopropyl-2-thiazolyl)methoxy]benzyl}}sulfamoylbenzoic acid]
hydroxyproline content of the right lung lobe ([1]; 7th day after BLM): 129.9 ± 11.35 µg | total number of cells in BALF ([1]; 7th day after BLM, KP-496 0.5 w/v % inhalation twice a day): 0.6±0.29 ×10^5 cells | number of alveolar macrophages in BALF [1, 3]: 0.6±0.27 ×10^5 cells | number of eosinophils in BALF [1, 3]: 0.3±0.68 ×10^3 cells | number of lymphocytes in BALF [1, 3]: 0.1±0.09 ×10^4 cells | number of neutrophils in BALF [1, 3]: 0.2±0.11 ×10^4 cells | histopathologic score of acute inflammation, left lung ([1]; 7th day after BLM, score 0-4): 1.0±0.76 | hydroxyproline content of the right lung lobe ([1]; 21st day after BLM): 138.0 ± 9.93 µg | number of alveolar macrophages in BALF [1, 4]: 0.7±0.23 ×10^5 cells | number of eosinophils in BALF [1, 4]: 0.1±0.21 ×10^3 cells | number of lymphocytes in BALF [1, 4]: 0.3±0.10 ×10^4 cells | number of neutrophils in BALF [1, 4]: 0.02±0.02 ×10^4 cells | total number of cells in BALF [1, 4]: 0.8±0.24 ×10^5 cells | histopathologic score of chronic inflammation, left lung ([1]; 21st day after BLM, score 0-4): 1.0±0.76 | histopathologic score of fibrogenesis, left lung ([1]; 21st day after BLM, score 0-4): 0.6±0.52 | increase of PAS positive area (mucus producing region of intrapulmonary bronchial epithelium) [2]: significantly suppressed
